In the Deep4Chem optical property database:
Each block holds one compound with its values, some of them ahead of it.

Test: photoluminescence quantum yield (fraction); solvent given as SMILES

Compound: CCCC1=Cc2nc1ccc1[nH]c(cc1CCC)c1nc(c(NC(=O)CCCC(=O)OC)cc3[nH]c2cc3CCC)C(CCC)=C1
photoluminescence quantum yield (in Cc1ccccc1): 0.2

photoluminescence quantum yield (in ClCCl): 0.99
Compound: F[B-]1(F)n2c(Oc3ccccc3)c(Cl)c3c2C(=C2C(Br)=C(Cl)C(Oc4ccccc4)=[N+]21)Oc1ccccc1-3

Compound: Oc1ccccc1-c1nc2c3ccccc3c3ccccc3c2n1-c1ccccc1
photoluminescence quantum yield (in Cc1ccccc1): 0.001

photoluminescence quantum yield (in CS(C)=O): 0.7 | photoluminescence quantum yield (in O): 0.92
Compound: CCCCCn1c2ccc(S(=O)(=O)O)cc2c(=O)c2cc(S(=O)(=O)O)ccc21

Compound: CCCCC(CC)CN1C(=O)c2cccc3c(C#Cc4ccc(N(c5ccccc5)c5ccc(C#Cc6ccc7c8c(cccc68)C(=O)N(CC(CC)CCCC)C7=O)cc5)cc4)ccc(c23)C1=O (configuration not stated)
photoluminescence quantum yield (in C1CCCCC1): 0.93 | photoluminescence quantum yield (in C1CCOC1): 0.85 | photoluminescence quantum yield (in CC#N): 0.012 | photoluminescence quantum yield (in Cc1ccccc1): 0.94 | photoluminescence quantum yield (in ClC(Cl)Cl): 0.44

photoluminescence quantum yield (in CC#N): 0.58 | photoluminescence quantum yield (in ClCCl): 0.73
Compound: O=c1c2cc(I)ccc2nc2n1[B-](F)(F)[n+]1ccccc1-2

photoluminescence quantum yield (in C1CCOC1): 0.38
Compound: N#Cc1c(N2CCCCC2)cc(-c2ccc(-c3ccccc3)cc2)c2c1CCc1ccccc1-2

photoluminescence quantum yield (in C1CCCCC1): 0.51
Compound: C[Si](C)(C)C#CC#Cc1ccc2c3cccc4cccc(c5cccc1c52)c43

photoluminescence quantum yield (in C1CCOC1): 0.208
Compound: O=C(c1ccc(C(=C(c2ccccc2)c2ccccc2)c2ccccc2)cc1)c1ccc(-n2c3ccccc3c3ccccc32)cc1

Compound: CC(C)(C)c1ccc(C(C)(C)C)c(N2C(=O)c3cccc4c(-c5ccc(-c6ccc([N+](=O)[O-])cc6)s5)ccc(c34)C2=O)c1
photoluminescence quantum yield (in CO): 0.03 | photoluminescence quantum yield (in CS(C)=O): 0.17 | photoluminescence quantum yield (in Cc1ccccc1): 0.07

photoluminescence quantum yield (in ClC(Cl)Cl): 0.94
Compound: COc1ccc(C2=Cc3ccc4ccccc4[n+]3[B-](F)(F)O2)cc1

photoluminescence quantum yield (in O): 0.001
Compound: O=C(O)c1ccccc1

photoluminescence quantum yield (in ClCCl): 0.16
Compound: COc1ccc2cc(C#CC3=C4CCc5ccccc5C4=[O+][B-](F)(F)O3)ccc2c1

photoluminescence quantum yield (in ClCCl): 0
Compound: Cc1ccc(/C=C/c2nc(-c3cccc([N+](=O)[O-])c3)[nH]c2/C=C/c2ccc(C)cc2)cc1

photoluminescence quantum yield (in ClCCl): 0.34
Compound: C[Si]1(C)O[Si](C)(C)c2cc3c(-c4ccccc4)c4cc(Cl)ccc4nc3cc21

photoluminescence quantum yield (in ClCCl): 0.1
Compound: c1ccc([B-]23NC(C4CCCCC4)=Nc4cccc([n+]42)N=C(C2CCCCC2)N3)cc1

photoluminescence quantum yield (in ClC(Cl)Cl): 0.86
Compound: F[B-]1(F)n2c(ccc2-c2nc3ccccc3s2)C(c2ccccc2)=C2C=CC(c3nc4ccccc4s3)=[N+]21

photoluminescence quantum yield (in ClCCl): 0.023
Compound: C(=C\c1nc2c(c(N3CCOCC3)n1)CCCC2)/c1ccccc1

photoluminescence quantum yield (in C1CCCCC1): 0.12
Compound: COc1ccc(C2=C(c3ccc(OC)cc3)C(C)(C)c3cc(OC)ccc32)cc1

Compound: CCCCOC(=O)c1cc(Cl)c2c3c(Cl)cc4c5c(cc(Cl)c(c6c(Oc7ccc(C(=O)OC)cc7)cc(C(=O)OCCCC)c1c26)c53)C(=O)N(c1c(C(C)C)cccc1C(C)C)C4=O
photoluminescence quantum yield (in Cc1ccccc1): 0.92

photoluminescence quantum yield (in ClC(Cl)Cl): 0.155
Compound: CCCCCCCCCCCCSc1cc2c3c(ccc4c5c(SCCCCCCCCCCCC)cc6c7c(ccc(c1c34)c75)C(=O)N(C1CCCCC1)C6=O)C(=O)N(C1CCCCC1)C2=O

photoluminescence quantum yield (in C1CCCCC1): 0.91
Compound: CC(C)(C)C#Cc1ccc2c3cccc4cccc(c5cccc1c52)c43

photoluminescence quantum yield (in ClCCl): 0.99
Compound: C(=C/c1ccc(N(c2ccccc2)c2ccccc2)cc1)/c1ccc(N(c2ccccc2)c2ccccc2)cc1

photoluminescence quantum yield (in ClC(Cl)Cl): 0.61
Compound: c1ccc2sc(-c3ccc(-c4nnc(-c5ccc(-c6nnc(-c7ccc(-c8cc9ccccc9s8)s7)o6)cc5)o4)s3)cc2c1

Compound: CCC1=C(C)C2=Cc3c4ccccc4c4n3[B-](c3ccncc3)(Oc3ccccc3-4)[N+]2=C1C (configuration not stated)
photoluminescence quantum yield (in CC#N): 0.73 | photoluminescence quantum yield (in CCCCCC): 0.78 | photoluminescence quantum yield (in Cc1ccccc1): 0.7 | photoluminescence quantum yield (in ClCCl): 0.7

photoluminescence quantum yield (in ClCCl): 0.12
Compound: Brc1cc2nc3cc4c5c(cccc5c3nc2cc1Br)C(c1ccccc1)=C(c1ccccc1)O4
